1 molecule from paper PMC11984586, “A novel spider toxin as a selective antagonist of the Kv1 subfamily of voltage-gated potassium channels through gating modulation” (The Journal of Biological Chemistry, 2025) can be followed below.

Format in all cases: cell-based
The target of one test is T1, Kv1.3/L360A (Homo sapiens, UniProt P22001, L360A).
T1 construct: expressed in transfected cells; host or cells: CHO-K1
As to the kind of experiment: Whole-cell patch clamp, Kv1.3 alanine mutant. The protocol:
(§1) MrVIII inhibits Kv1 channels by stabilizing the voltage sensor in its resting state. […] To investigate this hypothesis, we constructed a series of alanine mutants in the S3-S4 region of the Kv1.3 channel, covering residues I336 to L363, to identify critical interactions between the peptide and the channel (Fig. 6A). […] For the remaining mutants that retained functional current expression, we evaluated the inhibitory activity of 100 nM MrVIII. […] The lack of conserved multiple interaction sites may explain the absence of activity on other Kv subfamily channels (Fig. S3). In summary, this study identified key amino acid residues in the S3-S4 region of the Kv1.3 channel that interact with MrVIII, providing a foundation for further exploration into the peptide's mechanism of action.
(§2) The cDNA of hKv1.1, hKv1.2, hKv1.3, rKv1.4, hKv1.5, mKv1.6, and hKv1.7 were subcloned into mammalian expression vectors pcDNA3.1 or pCMV-blank vectors, as well as other plasmids described previously ([35]). Channel mutants were generated by site-directed mutations. Briefly, the parental channel plasmid was amplified using a pair of oppositely directed primers harboring the designed mutation site, with KOD Fx (TOYOBO Co, Ltd). The resulting PCR mix was treated with FastDigest DpnI (Thermo Fisher Scientific) to remove the methylated template. Ten microliters of the digested product was then used to transform 100 μl E. coli DH5α competent cells. Transformants were randomly picked and sequenced to confirm the presence of the intended mutation.
(§3) CHO-K1 cells were selected for expressing Kv channels due to their lack of endogenous Kv channels, while HEK293 or ND7/23 cells were used for Nav and Cav channel expression. CHO-K1 cells were cultured in a Dulbecco's modified Eagle's medium/Ham's F-12 nutrient mixture (DMEM-F12) medium, and HEK293T and ND7/23 cells in DMEM medium, all supplemented with 10% fetal bovine serum and 1% penicillin-streptomycin (all from Gibco, Thermo Fisher Scientific, Inc) under standard conditions (37 °C, 5% CO2, and saturated humidity). These cell lines were purchased from Stem Cell Bank, Chinese Academy of Sciences. Channel plasmids were cotransfected with pEGFP-N1 (encoding GFP) into the respective cells using lipofectamine 2000, following the manufacturer's instructions (Invitrogen, Thermo Fisher Scientific, Inc.). Nav1.9-GFP plasmid was transfected into ND7/23 using the X-tremeGENE HP DNA Transfection Reagent (Roche). After 4 to 6 h transfection, cells were seeded onto poly-lysine–coated coverslips, and 24 to 36 h later, transfected cells were ready for patch-clamp analysis.
(§4) Patch clamp experiments were conducted using an electrophysiology platform comprising a MultiClamp 700B amplifier and an Axon Digidata 1550 AD/DA convertor (Axon Instruments). Data acquisition was performed with pClamp 10.5 software (Axon Instruments). All experiments were performed at room temperature.
(§5) For Kv current recordings, the bath solution contained (in mM) the following: 140 NaCl, 5 KCl, 1 MgCl2, 2 CaCl2, 10 glucose, and 10 Hepes (pH 7.3, adjusted with NaOH), and the pipette solution contained (in mM) the following: 140 KCl, 2.5 MgCl2, 11 EGTA, and 10 Hepes (pH 7.3, adjusted with KOH). Series resistance was maintained below 10 MΩ and compensated to 80%. Concentration–response curves were fitted by the Hill equation to determine the toxin's potency. Whole cell conductance (G) at each depolarizing voltage (V) was determined using the equation: G = I/(V−Vrev), where I is the current amplitude, and Vrev is the reversal potential. The reversal potential for K^+ current was estimated to be −85.6 mV using the Nernst equation. G-V curves were obtained by plotting the normalized conductance as a function of V and fitted by the Boltzmann equation: y = 1/(1+ exp((Va-V)/k)), which Va is the midpoint voltage, V is the test potential, and k is the slope factor. The steady-state fast inactivation of Kv1.3 was measured using a two-pulses protocol. […]
A general note: The patch-clamp technique gives a direct electrical read-out from membranes.

Another test concerns the target T2, Kv1.3/L343A (Homo sapiens, UniProt P22001, L343A).
T2 construct: expressed in transfected cells; host or cells: CHO-K1
As to the kind of experiment: Whole-cell patch clamp, Kv1.3 alanine mutant. The procedure: as §1, §2, §3, §4, §5

Another test concerns the target T3, Kv1.3/T342A (Homo sapiens, UniProt P22001, T342A).
T3 construct: expressed in transfected cells; host or cells: CHO-K1
The experiment in a line: Whole-cell patch clamp, Kv1.3 alanine mutant. The protocol: as §1, §2, §3, §4, §5

A further test deals with T4, Kv1.3/L347A (Homo sapiens, UniProt P22001, L347A).
T4 construct: expressed in transfected cells; host or cells: CHO-K1
The experiment in a line: Whole-cell patch clamp, Kv1.3 alanine mutant. The protocol:
as §1, §2, §3, §4, §5

In test [1] the target is T5, Kv1.3/1.1 S5-S6 chimeric channel (Homo sapiens, UniProt P22001, D422E/D423E/G427H/H451Y/P424A/T425E/T441S).
T5 construct: expressed in transfected cells; host or cells: CHO-K1
As to the kind of experiment: Whole-cell patch clamp, chimeric channel. Conditions: +30 mV, 500 ms, holding −80 mV, mean ± SD, n = 4-5, read-out: IC50, Kv1.3/1.1 S5-S6 current. The source says:
To investigate the structural determinants underlying the differential regulatory effects of MrVIII on Kv1 channels, we employed a chimeric channel strategy. Using Kv1.3 as the template, the S1-S2, S3-S4, and S5-S6 transmembrane helices and their respective linkers from Kv1.1 were inserted to generate chimeras, generating the Kv1.3/1.1 S1-S2, Kv1.3/1.1 S3-S4, and Kv1.3/1.1 S5-S6 chimeric channels. […] These findings indicate that the S3-S4 is the key determinant for the differential inhibition of Kv1.1 and Kv1.3 by MrVIII. To further validate this conclusion, we constructed a reverse chimeric channel using Kv1.1 as the template, inserting the corresponding regions from Kv1.3 into Kv1.1. […] This finding more directly illustrates the exchange of the channel's voltage-dependence phenotype in toxin inhibition by swapping this S3-S4 between Kv1.1 and Kv1.3. […] In addition to confirming the differential role of S3-S4 between Kv1.1 and Kv1.3, we also substituted the S3-S4 of Kv1.4 and Kv1.7 into Kv1.3 to analyze MrVIII's inhibition profile. […] The IC50 for Kv1.3/1.7 S3-S4 could not be fitted, and inhi%(495 ms) was only 23.1 ± 10.0% (Fig. S2, E and F). […]
CHO-K1 cells were selected for expressing Kv channels due to their lack of endogenous Kv channels, while HEK293 or ND7/23 cells were used for Nav and Cav channel expression. […] After 4 to 6 h transfection, cells were seeded onto poly-lysine–coated coverslips, and 24 to 36 h later, transfected cells were ready for patch-clamp analysis. […]
For Kv current recordings, the bath solution contained (in mM) the following: 140 NaCl, 5 KCl, 1 MgCl2, 2 CaCl2, 10 glucose, and 10 Hepes (pH 7.3, adjusted with NaOH), and the pipette solution contained (in mM) the following: 140 KCl, 2.5 MgCl2, 11 EGTA, and 10 Hepes (pH 7.3, adjusted with KOH). […] Whole cell conductance (G) at each depolarizing voltage (V) was determined using the equation: G = I/(V−Vrev), where I is the current amplitude, and Vrev is the reversal potential. […]

Where [2] appears, read: 100 nM MrVIII on mutant compared with 10 nM on WT Kv1.3, +30 mV, n = 4–7.

Bridge positions count the residues as written; N and C are the ends. Peptide text beside a SMILES is read from it.

T3 sequence (P22001 whole entry T342A): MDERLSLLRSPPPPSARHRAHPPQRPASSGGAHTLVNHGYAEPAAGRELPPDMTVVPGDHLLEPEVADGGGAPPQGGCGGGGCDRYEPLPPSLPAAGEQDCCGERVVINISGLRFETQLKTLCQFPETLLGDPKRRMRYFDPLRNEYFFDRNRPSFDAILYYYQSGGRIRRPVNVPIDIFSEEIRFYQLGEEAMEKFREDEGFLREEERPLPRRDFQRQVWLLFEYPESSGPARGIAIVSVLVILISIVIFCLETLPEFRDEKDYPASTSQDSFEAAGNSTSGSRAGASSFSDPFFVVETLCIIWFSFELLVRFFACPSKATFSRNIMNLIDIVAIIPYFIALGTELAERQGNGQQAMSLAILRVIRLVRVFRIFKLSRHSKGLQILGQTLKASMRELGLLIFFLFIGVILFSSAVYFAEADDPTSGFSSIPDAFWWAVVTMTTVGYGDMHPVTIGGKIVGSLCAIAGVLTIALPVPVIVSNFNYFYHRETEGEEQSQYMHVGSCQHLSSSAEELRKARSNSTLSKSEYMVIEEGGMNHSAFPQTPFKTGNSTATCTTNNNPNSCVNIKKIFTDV
T2 sequence (P22001 whole entry L343A): as the sequence (P22001 whole entry T342A) above, with A342T, L343A counted along it
T1 sequence (P22001 whole entry L360A): as the sequence (P22001 whole entry T342A) above, with A342T, L360A counted along it
T4 sequence (P22001 whole entry L347A): as the sequence (P22001 whole entry T342A) above, with A342T, L347A counted along it
T5 sequence (P22001 whole entry D422E/D423E/P424A/T425E/G427H/T441S/H451Y): as the sequence (P22001 whole entry T342A) above, with A342T, D422E, D423E, P424A, T425E, G427H, T441S, H451Y counted along it

On to `CC[C@H](C)[C@@H]1NC(=O)[C@H](Cc2ccc(O)cc2)NC(=O)[C@H](CCC(N)=O)NC(=O)[C@@H]2CCCN2C(=O)[C@@H]2CSSC[C@H](NC(=O)[C@H](C)NC(=O)[C@H](CO)NC(=O)[C@H](CCC(=O)O)NC(=O)[C@H](CCC(=O)O)NC(=O)[C@@H](N)[C@@H](C)O)C(=O)NCC(=O)NCC(=O)N[C@@H](Cc3ccccc3)C(=O)N[C@@H](CC(N)=O)C(=O)N[C@@H](C)C(=O)N[C@@H](CCCNC(=N)N)C(=O)N[C@H]3CSSC[C@H](NC1=O)C(=O)N[C@@H](CCCCN)C(=O)NCC(=O)N[C@@H](Cc1c[nH]c4ccccc14)C(=O)N[C@@H](CCCNC(=N)N)C(=O)N[C@@H]([C@@H](C)O)C(=O)N[C@@H](CCCCN)C(=O)N[C@@H](CCCNC(=N)N)C(=O)N[C@H](C(=O)N[C@@H](CC(C)C)C(=O)N[C@@H](CC(N)=O)C(=O)N1CCC[C@H]1C(=O)O)CSSC[C@H](NC(=O)[C@H](CCCCN)NC(=O)[C@H](Cc1c[nH]cn1)NC(=O)[C@H](CC(C)C)NC(=O)[C@@H]1CCCN1C3=O)C(=O)N2` [MrVIII] (H-TEESACGGFNARCPLHKCCPQYICKGWRTKRCLNP-OH; disulfide 6-19, 13-24, 18-32; N-terminus and C-terminus assumed), for which, at Kv1.3/L360A (setting [2]), the “decrease of inhibitory potency vs WT Kv1.3, L360A” value is “more than 10 fold”. Further, the IC50 on Kv1.3/L360A (+30 mV, 500 ms, mean ± SD, n = 4–6, SD, read-out: IC50, Kv1.3/L360A current) stood at 148 ± 60.4 nM; at Kv1.3/L343A (+30 mV, 500 ms, mean ± SD, n = 4–6, SD, read-out: IC50, Kv1.3/L343A current) it was 135 ± 34 nM; at Kv1.3/T342A (current at 50 ms, +30 mV, mean ± SD, n = 4–6, SD), 143 ± 38.2 nM; at Kv1.3/L347A (+30 mV, 500 ms, mean ± SD, n = 4–6, SD, read-out: IC50, Kv1.3/L347A current) it was 85.7 ± 41.3 nM; in test [1], 3 ± 0.9 nM. Further, the “decrease of inhibitory potency vs WT Kv1.3, L343A” value at Kv1.3/L343A (setting [2]) is “more than 10 fold”. The “decrease of inhibitory potency vs WT Kv1.3, T342A” value at Kv1.3/T342A (setting [2]) was “more than 10 fold”. Moreover, at Kv1.3/T342A (current at 495 ms, +30 mV, mean ± SD, n = 4–6, SD), the “inhi%(495 ms), Kv1.3/T342A current” value was 27.7 ± 12.9%. The “decrease of inhibitory potency vs WT Kv1.3, L347A” value at Kv1.3/L347A (setting [2]) is recorded as “more than 10 fold”.
